{
  "source": "ChEMBL document CHEMBL6120985",
  "about": "“Discovery of a potent PARP1 PROTAC as a chemosensitizer for the treatment of colorectal cancer” (Eur J Med Chem, 2025)",
  "key": {"[1]": {"target": "T1, Protein cereblon/Poly [ADP-ribose] polymerase 1 (Homo sapiens, UniProt P09874+Q96SW2)", "assay": "PROTAC activity at CRBN/PARP1 in human HCT-116 cells assessed as degradation of PARP1 measured after 24 hrs", "type": "cell-based"}, "[2]": {"target": "T1, Protein cereblon/Poly [ADP-ribose] polymerase 1", "assay": "PROTAC activity at CRBN/PARP1 in human HCT-116 cells assessed as degradation of PARP1 at upto 10 uM measured after 24 hrs relative to control", "type": "cell-based"}, "[3]": {"target": "T1, Protein cereblon/Poly [ADP-ribose] polymerase 1", "assay": "PROTAC activity at CRBN/PARP1 in human RKO cells assessed as degradation of PARP1 measured after 24 hrs", "type": "cell-based"}, "[4]": {"target": "T2, Protein cereblon/Poly [ADP-ribose] polymerase 2 (Homo sapiens, UniProt Q9UGN5+Q96SW2)", "assay": "PROTAC activity at CRBN/PARP2 in human HCT-116 cells assessed as degradation of PARP2", "type": "cell-based"}, "[5]": {"target": "T2, Protein cereblon/Poly [ADP-ribose] polymerase 2", "assay": "PROTAC activity at CRBN/PARP2 in human HCT-116 cells assessed as maximum degradation of PARP2 relative to control", "type": "cell-based"}, "[6]": {"target": "T1, Protein cereblon/Poly [ADP-ribose] polymerase 1", "assay": "PROTAC activity at CRBN/PARP1 in human HCT-116 cells assessed as degradation of PARP1 at 1 uM in presence of MLN4924", "type": "cell-based"}, "[7]": {"target": "T1, Protein cereblon/Poly [ADP-ribose] polymerase 1", "assay": "PROTAC activity at CRBN/PARP1 in human HCT-116 cells assessed as degradation of PARP1 at 1 uM in presence of thalidomide", "type": "cell-based"}, "SW-620 [8]": {"test_system": "SW-620", "assay": "Cytotoxicity against human SW620 cells assessed as inhibition of cell growth measured after 72 hrs by CCK-8 method", "type": "functional, cell-based", "conditions": "SW-620, 72 h"}, "SW-620 [9]": {"test_system": "SW-620", "assay": "Potency index, ratio of SK-575 IC50 to test compound IC50 for cytotoxicity against human SW620 cells assessed as inhibition of cell growth measured after 72 hrs by CCK-8 method", "type": "functional"}, "[10]": {"assay": "Cytotoxicity against HEK293T cells assessed as inhibition of cell growth measured after 72 hrs by CCK-8 method", "type": "toxicity, cell-based, HEK-293T", "conditions": "human"}, "HCT-116 [11]": {"test_system": "HCT-116", "assay": "Synergistic antiproliferative activity against human HCT-116 cells assessed as combination index at 0.5 uM measured after 72 hrs in presence of 5 nM of SN-38 by CCK-8 method", "type": "functional"}, "HCT-116 [12]": {"test_system": "HCT-116", "assay": "Synergistic antiproliferative activity against human HCT-116 cells assessed as combination index at 1 uM measured after 72 hrs in presence of 1.25 nM of SN-38 by CCK-8 method", "type": "functional"}, "HCT-116 [13]": {"test_system": "HCT-116", "assay": "Synergistic antiproliferative activity against human HCT-116 cells assessed as combination index at 1 uM measured after 72 hrs in presence of 2.5 nM of SN-38 by CCK-8 method", "type": "functional"}, "HCT-116 [14]": {"test_system": "HCT-116", "assay": "Synergistic antiproliferative activity against human HCT-116 cells assessed as combination index at 2 uM measured after 72 hrs in presence of 2.5 nM of SN-38 by CCK-8 method", "type": "functional"}, "HCT-116 [15]": {"test_system": "HCT-116", "assay": "Synergistic antiproliferative activity against human HCT-116 cells assessed as combination index at 2 uM measured after 72 hrs in presence of 10 nM of SN-38 by CCK-8 method", "type": "functional"}, "HCT-116 [16]": {"test_system": "HCT-116", "assay": "Synergistic antiproliferative activity against human HCT-116 cells assessed as combination index at 4 uM measured after 72 hrs in presence of 0.625 nM of SN-38 by CCK-8 method", "type": "functional"}, "HCT-116 [17]": {"test_system": "HCT-116", "assay": "Synergistic antiproliferative activity against human HCT-116 cells assessed as combination index at 4 uM measured after 72 hrs in presence of 1.25 nM of SN-38 by CCK-8 method", "type": "functional"}, "HCT-116 [18]": {"test_system": "HCT-116", "assay": "Synergistic antiproliferative activity against human HCT-116 cells assessed as combination index at 4 uM measured after 72 hrs in presence of 2.5 nM of SN-38 by CCK-8 method", "type": "functional"}, "HCT-116 [19]": {"test_system": "HCT-116", "assay": "Synergistic antiproliferative activity against human HCT-116 cells assessed as combination index at 4 uM measured after 72 hrs in presence of 10 nM of SN-38 by CCK-8 method", "type": "functional"}, "HCT-116 [20]": {"test_system": "HCT-116", "assay": "Induction of apoptosis in human HCT-116 cells assessed as viable cells at 1 uM measured after 72 hrs by annexin V/FITC and PI staining based flow cytometry analysis (reference value: 89.6%)", "type": "functional", "conditions": "read-out: Activity"}, "HCT-116 [21]": {"test_system": "HCT-116", "assay": "Effect on BRCA level in human HCT-116 cells at 1 uM in presence of SN-38 by Western blot analysis", "type": "functional, cell-based"}, "HCT-116 [22]": {"test_system": "HCT-116", "assay": "Downregulation of KRT1 level in human HCT-116 cells at 1 uM in presence of SN-38 by KEGG enrichment analysis", "type": "functional, cell-based"}, "HCT-116 [23]": {"test_system": "HCT-116", "assay": "Downregulation of CDC25 level in human HCT-116 cells at 1 uM in presence of SN-38 by KEGG enrichment analysis", "type": "functional, cell-based"}, "HCT-116 [24]": {"test_system": "HCT-116", "assay": "Effect on p53 protein level in human HCT-116 cells at 1 uM in presence of SN-38 by Western blot analysis", "type": "functional, cell-based"}, "HCT-116 [25]": {"test_system": "HCT-116", "assay": "Effect on DNA-PKcs protein level in human HCT-116 cells at 1 uM in presence of SN-38 by Western blot analysis", "type": "functional, cell-based"}, "HCT-116 [26]": {"test_system": "HCT-116", "assay": "Upregulation of CDK1 level in human HCT-116 cells at 1 uM in presence of SN-38 by Western blot analysis", "type": "functional, cell-based"}},
  "note": "Calls of active or inactive are those of the source. No cut-off for these calls is given here.",
  "data": [
    {"smiles": "NC(=O)c1cccc2cn(-c3ccc([C@@H]4CCCN(CCC5CCN(CCC6CCN(CC7CCN(c8ccc9c(c8)C(=O)N(C8CCC(=O)NC8=O)C9=O)CC7)CC6)CC5)C4)cc3)nc12", "note": "(stereo partly specified)", "values": [
      {"measurement": "DC50", "setting": "[1]", "result": 0.0581, "unit": "µM"},
      {"measurement": "Emax", "setting": "[2]", "result": 96.5, "unit": "%"},
      {"measurement": "DC50", "setting": "[3]", "result": 0.161, "unit": "µM"},
      {"measurement": "DC50", "setting": "[4]", "result": 19.1, "unit": "µM"},
      {"measurement": "Emax", "setting": "[5]", "result": 84.8, "unit": "%"},
      {"measurement": "Activity", "setting": "[6]", "result": "inactive"},
      {"measurement": "Activity", "setting": "[7]", "result": "inactive"},
      {"measurement": "IC50", "setting": "SW-620 [8]", "result": 1.63, "unit": "µM"},
      {"measurement": "Ratio IC50", "setting": "SW-620 [9]", "result": "<6"},
      {"measurement": "IC50 at 72 h", "setting": "[10]", "result": 4.13, "unit": "µM"},
      {"measurement": "CI", "setting": "HCT-116 [11]", "result": 0.756},
      {"measurement": "CI", "setting": "HCT-116 [12]", "result": 0.969},
      {"measurement": "CI", "setting": "HCT-116 [13]", "result": 0.823},
      {"measurement": "CI", "setting": "HCT-116 [14]", "result": 0.856},
      {"measurement": "CI", "setting": "HCT-116 [15]", "result": 0.766},
      {"measurement": "CI", "setting": "HCT-116 [16]", "result": 0.567},
      {"measurement": "CI", "setting": "HCT-116 [17]", "result": 0.574},
      {"measurement": "CI", "setting": "HCT-116 [18]", "result": 0.545},
      {"measurement": "CI", "setting": "HCT-116 [19]", "result": 0.538},
      {"measurement": "viability at 1 µM", "setting": "HCT-116 [20]", "result": 83.6, "unit": "%"},
      {"measurement": "Activity", "setting": "HCT-116 [21]", "result": "inactive"},
      {"measurement": "Activity", "setting": "HCT-116 [22]", "result": "Active"},
      {"measurement": "Activity", "setting": "HCT-116 [23]", "result": "Active"},
      {"measurement": "Activity", "setting": "HCT-116 [24]", "result": "inactive"},
      {"measurement": "Activity", "setting": "HCT-116 [25]", "result": "inactive"},
      {"measurement": "Activity", "setting": "HCT-116 [26]", "result": "Active"}
    ]}
  ]
}
